Measured values published in PubChem BioAssay (NCI).
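A five-concentration, 48-hour dose response in 96-well plates underlies each endpoint, interpolated linearly between surrounding concentrations. TGI marks complete inhibition of growth.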

Assays:
Assay in all cases: DTP human tumour cell line panel, 48 h
MALME-3M melanoma = system: MALME-3M melanoma
HOP-18 NSCLC = system: HOP-18 NSCLC
IGROV1 ovarian = system: IGROV1 ovarian
DMS 114 small cell lung = system: DMS 114 small cell lung
LOX IMVI melanoma = system: LOX IMVI melanoma
KM20L2 colon = system: KM20L2 colon
A549 NSCLC = system: A549 NSCLC
ACHN renal = system: ACHN renal
HT29 colon = system: HT29 colon
OVCAR-4 ovarian = system: OVCAR-4 ovarian
TK-10 renal = system: TK-10 renal
A498 renal = system: A498 renal
SK-MEL-28 melanoma = system: SK-MEL-28 melanoma
HCT-15 colon = system: HCT-15 colon
HOP-62 NSCLC = system: HOP-62 NSCLC
NCI-H226 lung = system: NCI-H226 lung
SF-295 CNS = system: SF-295 CNS
SN12C renal = system: SN12C renal
HOP-92 NSCLC = system: HOP-92 NSCLC
SR leukemia = system: SR leukemia
SNB-19 CNS = system: SNB-19 CNS
EKVX NSCLC = system: EKVX NSCLC
U251 CNS = system: U251 CNS
NCI-H23 lung = system: NCI-H23 lung
SNB-78 CNS = system: SNB-78 CNS
786-0 renal = system: 786-0 renal
RXF-631 renal = system: RXF-631 renal
XF 498 CNS = system: XF 498 CNS
LXFL 529 NSCLC = system: LXFL 529 NSCLC
UACC-257 melanoma = system: UACC-257 melanoma
SW-620 colon = system: SW-620 colon
DLD-1 colon = system: DLD-1 colon
OVCAR-8 ovarian = system: OVCAR-8 ovarian
RXF 393 renal = system: RXF 393 renal
SF-539 CNS = system: SF-539 CNS
RPMI-8226 leukemia = system: RPMI-8226 leukemia
HCC-2998 colon = system: HCC-2998 colon
SF-268 CNS = system: SF-268 CNS
KM12 colon = system: KM12 colon
NCI-H460 lung = system: NCI-H460 lung
UO-31 renal = system: UO-31 renal
NCI-H522 lung = system: NCI-H522 lung
HCT-116 colon = system: HCT-116 colon
SK-MEL-2 melanoma = system: SK-MEL-2 melanoma
OVCAR-5 ovarian = system: OVCAR-5 ovarian
K-562 leukemia = system: K-562 leukemia
HL-60(TB) leukemia = system: HL-60(TB) leukemia
COLO 205 colon = system: COLO 205 colon
OVCAR-3 ovarian = system: OVCAR-3 ovarian
CCRF-CEM leukemia = system: CCRF-CEM leukemia
DMS 273 small cell lung = system: DMS 273 small cell lung
SK-MEL-5 melanoma = system: SK-MEL-5 melanoma
M19-MEL melanoma = system: M19-MEL melanoma
M14 melanoma = system: M14 melanoma
SNB-75 CNS = system: SNB-75 CNS
UACC-62 melanoma = system: UACC-62 melanoma
CAKI-1 renal = system: CAKI-1 renal
MOLT-4 leukemia = system: MOLT-4 leukemia
SK-OV-3 ovarian = system: SK-OV-3 ovarian

Measured: TGI

Nc1ccn(CCNCCn2cnc3nc(N)[nH]c(=O)c32)c(=O)n1
> 100 µM: MALME-3M melanoma | HOP-18 NSCLC | IGROV1 ovarian | DMS 114 small cell lung | LOX IMVI melanoma | KM20L2 colon | A549 NSCLC | ACHN renal | HT29 colon | OVCAR-4 ovarian | TK-10 renal | A498 renal | SK-MEL-28 melanoma | HCT-15 colon | HOP-62 NSCLC | NCI-H226 lung | SF-295 CNS | SN12C renal | HOP-92 NSCLC | SR leukemia | SNB-19 CNS | EKVX NSCLC | U251 CNS | NCI-H23 lung | SNB-78 CNS | 786-0 renal | RXF-631 renal | XF 498 CNS | LXFL 529 NSCLC | UACC-257 melanoma | SW-620 colon | DLD-1 colon | OVCAR-8 ovarian | RXF 393 renal | SF-539 CNS | RPMI-8226 leukemia | HCC-2998 colon | SF-268 CNS | KM12 colon | NCI-H460 lung | UO-31 renal | NCI-H522 lung | HCT-116 colon | SK-MEL-2 melanoma | OVCAR-5 ovarian | K-562 leukemia | HL-60(TB) leukemia | COLO 205 colon | OVCAR-3 ovarian

Cc1[nH]ccc2c1[nH]c1cc(=O)ccc12
> 100 µM: MALME-3M melanoma | HOP-18 NSCLC | IGROV1 ovarian | DMS 114 small cell lung | LOX IMVI melanoma | KM20L2 colon | A549 NSCLC | ACHN renal | HT29 colon | OVCAR-4 ovarian | CCRF-CEM leukemia | TK-10 renal | A498 renal | SK-MEL-28 melanoma | HCT-15 colon | HOP-62 NSCLC | DMS 273 small cell lung | NCI-H226 lung | SK-MEL-5 melanoma | SF-295 CNS | SN12C renal | HOP-92 NSCLC | M19-MEL melanoma | SNB-19 CNS | EKVX NSCLC | U251 CNS | NCI-H23 lung | SNB-78 CNS | 786-0 renal | M14 melanoma | RXF-631 renal | XF 498 CNS | SNB-75 CNS | LXFL 529 NSCLC | UACC-62 melanoma | UACC-257 melanoma | CAKI-1 renal | SW-620 colon | DLD-1 colon | OVCAR-8 ovarian | RXF 393 renal | SF-539 CNS | RPMI-8226 leukemia | HCC-2998 colon | SF-268 CNS | SK-OV-3 ovarian | KM12 colon | NCI-H460 lung | UO-31 renal | HCT-116 colon | SK-MEL-2 melanoma | OVCAR-5 ovarian | K-562 leukemia | HL-60(TB) leukemia | COLO 205 colon | OVCAR-3 ovarian
85.9 µM: MOLT-4 leukemia

CC1=C(Oc2ccccc2)C(CCC(=O)O)c2c(O)cc(Cl)c(O)c21 (stereo not given)
> 100 µM: IGROV1 ovarian | DMS 114 small cell lung | LOX IMVI melanoma | KM20L2 colon | A549 NSCLC | OVCAR-4 ovarian | CCRF-CEM leukemia | TK-10 renal | A498 renal | SK-MEL-28 melanoma | HCT-15 colon | HOP-62 NSCLC | DMS 273 small cell lung | SK-MEL-5 melanoma | SF-295 CNS | SN12C renal | HOP-92 NSCLC | SR leukemia | M19-MEL melanoma | SNB-19 CNS | EKVX NSCLC | U251 CNS | NCI-H23 lung | SNB-78 CNS | 786-0 renal | M14 melanoma | RXF-631 renal | XF 498 CNS | UACC-257 melanoma | CAKI-1 renal | SW-620 colon | DLD-1 colon | OVCAR-8 ovarian | RXF 393 renal | SF-539 CNS | RPMI-8226 leukemia | HCC-2998 colon | MOLT-4 leukemia | SF-268 CNS | KM12 colon | NCI-H460 lung | UO-31 renal | NCI-H522 lung | HCT-116 colon | SK-MEL-2 melanoma | K-562 leukemia | HL-60(TB) leukemia | COLO 205 colon | OVCAR-3 ovarian
